For 19 compounds, EC50 and IC90 results are on record in patent US20240228488A1 (TAKEDA PHARMACEUTICAL COMPANY LIMITED, priority 2021, published 2024).

Assay [1] deals with human activated kallikrein enzyme (Homo sapiens, UniProt P03952). In words: Plasma kallikrein inhibition, fluorogenic PFR-AMC substrate, 500 pM activated kallikrein format. Type of assay: biochemical. Conditions: 500 pM activated kallikrein, 300 uM PFR-AMC, 30 min preincubation, 10 min reaction; read-out: Primary Dose Response Assay: Average EC50. The essentials:
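High-enzyme format of the fluorogenic peptide assay, with EC50 taken from AMC signal: 500 pM activated kallikrein, 300 uM Pro-Phe-Arg-AMC, 30 min compound preincubation and 10 min reaction, all at room temperature, pH 7.5.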

In a further assay the target is T1, plasma kallikrein (Homo sapiens, UniProt P03952).
T1 construct: from tissue
T1 sequence (P03952 391-638 limits assumed): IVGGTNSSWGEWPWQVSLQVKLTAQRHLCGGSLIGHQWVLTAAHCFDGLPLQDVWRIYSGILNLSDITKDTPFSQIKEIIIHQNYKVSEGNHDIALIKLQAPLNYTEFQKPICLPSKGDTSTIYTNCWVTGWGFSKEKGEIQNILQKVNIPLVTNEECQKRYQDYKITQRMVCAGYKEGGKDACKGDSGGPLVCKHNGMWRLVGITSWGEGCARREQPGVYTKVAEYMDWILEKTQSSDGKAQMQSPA
T1 sequence (P03952 20-390 partner limits assumed): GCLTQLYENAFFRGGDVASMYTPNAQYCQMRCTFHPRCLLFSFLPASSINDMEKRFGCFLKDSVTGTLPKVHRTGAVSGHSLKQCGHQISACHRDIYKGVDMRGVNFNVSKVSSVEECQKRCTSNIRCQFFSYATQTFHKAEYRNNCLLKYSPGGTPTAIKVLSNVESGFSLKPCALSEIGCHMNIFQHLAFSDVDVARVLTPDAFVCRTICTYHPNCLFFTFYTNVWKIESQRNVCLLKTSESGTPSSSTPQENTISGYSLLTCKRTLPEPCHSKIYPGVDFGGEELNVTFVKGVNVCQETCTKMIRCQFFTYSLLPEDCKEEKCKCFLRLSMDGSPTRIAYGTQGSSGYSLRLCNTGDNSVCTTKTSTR
In words: Neat human plasma assay, FXIIa contact pathway-activated, PFR-AMC substrate. Type of assay: biochemical. Particulars: citrated human plasma 78% final, 10 nM human FXIIa, 100 μM PFR-AMC; read-out: Human Plasma Assay: IC90. The essentials: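 Compound inhibition of plasma kallikrein measured as PFR-AMC (100 μM) cleavage rate over 5 min at room temperature in 78% citrated human plasma activated with 10 nM FXIIa (Tris pH 7.5 buffer). IC50/IC90 from 4-parameter fit of rate versus inhibitor concentration.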

Where only a bound is given, the exact number is not on record here.

Sequence of human activated kallikrein enzyme (P03952 391-638 limits assumed): as the sequence (P03952 391-638 limits assumed) above
Sequence of human activated kallikrein enzyme (P03952 20-390 partner limits assumed): as the sequence (P03952 20-390 partner limits assumed) above

`Cc1ccnc([C@H]2C[C@@H]2C(=O)Nc2cc(N[C@H](C)c3cn4cc(C5CC5)cc(N5CC(=O)N(C)C5=O)c4n3)ncn2)n1` (single isomer, unassigned) [Example 451]: in assay [1], the EC50 was less than 1 nM. Also, the IC90 on plasma kallikrein lay within 400 to 1500 nM.

As for `Cc1ccnc([C@H]2C[C@@H]2C(=O)Nc2cc(N[C@H](C)c3cn4cc(C5CC5)cc(N5CC6(COC6)CC5=O)c4n3)nc(C)n2)n1` [Example I-27, (1S,2S)—N-(6-(((R)-1-(6-cyclopropyl-8-(7-oxo-2-oxa-6-azaspiro[3.4]octan-6-yl)imidazo[1,2-a]pyridin-2-yl)ethyl)amino)-2-methylpyrimidin-4-yl)-2-(4-methylpyrimidin-2-yl)cyclopropane-1-carboxamide], the EC50 in assay [1] was less than 1 nM. In addition, the IC90 on plasma kallikrein was less than 400 nM.

Consider `Cc1ccnc([C@H]2C[C@@H]2C(=O)Nc2cc(NCc3cn4cc(C5CC5)cc(N5CCOC5=O)c4n3)ncn2)n1` (racemic) [Example 390, rac-(1S*,2S*)-N-(6-(((6-cyclopropyl-8-(2-oxooxazolidin-3-yl)imidazo[1,2-a]pyridin-2-yl)methyl)amino)pyrimidin-4-yl)-2-(4-methylpyrimidin-2-yl)cyclopropane-1-carboxamide], for which the EC50 in assay [1] was less than 1 nM. For the same compound, the concentration for an effect of 90% (IC90) at plasma kallikrein is less than 400 nM.

Turning to `Cc1ccnc([C@H]2C[C@@H]2C(=O)Nc2cc(OC(C)c3cn4cc(C5CC5)cc(N5CC(=O)N(C)C5=O)c4n3)ncn2)n1` (stereo partly drawn) [Example 549, (1S,2S)—N-(6-(1-(6-cyclopropyl-8-(3-methyl-2,4-dioxoimidazolidin-1-yl)imidazo[1,2-a]pyridin-2-yl)ethoxy)pyrimidin-4-yl)-2-(4-methylpyrimidin-2-yl)cyclopropane-1-carboxamide], the EC50 in assay [1] was less than 1 nM. The 90% effect concentration (IC90) on plasma kallikrein fell in the range of 400 to 1500 nM.

For `CN1CC(c2cc(C3CC3)cn3cc(CNc4cc(NC(=O)[C@H]5C[C@@H]5c5cccc(Cl)c5)ncn4)nc23)C1` [Example I-193, (1S,2S)-2-(3-chlorophenyl)-N-(6-(((6-cyclopropyl-8-(1-methylazetidin-3-yl)imidazo[1,2-a]pyridin-2-yl)methyl)amino)pyrimidin-4-yl)cyclopropane-1-carboxamide], in assay [1], the EC50 was less than 1 nM. The IC90 on plasma kallikrein was less than 400 nM.

In the case of `CN1CN(c2cc(C3CC3)cn3cc(CNc4cc(NC(=O)[C@H]5C[C@@H]5c5cccc(Cl)c5)ncn4)nc23)CC1=O` [Example I-9, (1S,2S)-2-(3-chlorophenyl)-N-(6-(((6-cyclopropyl-8-(3-methyl-4-oxoimidazolidin-1-yl)imidazo[1,2-a]pyridin-2-yl)methyl)amino)pyrimidin-4-yl)cyclopropane-1-carboxamide], in assay [1], the EC50 is 1 to 10 nM. Moreover, the IC90 at plasma kallikrein fell in the range of 1500 to 10000 nM.

Regarding `O=C(Nc1cc(NCc2cn3cc(C4CC4)cc(N4CNCC4=O)c3n2)ncn1)[C@H]1C[C@@H]1c1cccc(Cl)c1` [Example I-19, (1S,2S)-2-(3-chlorophenyl)-N-(6-(((6-cyclopropyl-8-(5-oxoimidazolidin-1-yl)imidazo[1,2-a]pyridin-2-yl)methyl)amino)pyrimidin-4-yl)cyclopropane-1-carboxamide], the EC50 in assay [1] is less than 1 nM. Besides, the IC90 on plasma kallikrein was less than 400 nM.

Consider `Cc1ccnc([C@H]2C[C@@H]2C(=O)Nc2ncnc(NCc3cn4cc(C5CC5)cc(N5CC(=O)N(C)C5=O)c4n3)c2F)n1` (racemic) [Example 412, rac-(1S*,2S*)-N-(6-(((6-cyclopropyl-8-(3-methyl-2,4-dioxoimidazolidin-1-yl)imidazo[1,2-a]pyridin-2-yl)methyl)amino)-5-fluoropyrimidin-4-yl)-2-(4-methylpyrimidin-2-yl)cyclopropane-1-carboxamide], for which the EC50 in assay [1] was in the range of 1 to 10 nM. At plasma kallikrein, the IC90 fell in the range of 400 to 1500 nM.

In the case of `O=C(Nc1cc(NCc2cn3cc(C4CC4)ccc3n2)ccn1)[C@H]1C[C@@H]1c1cc(Cl)ccn1` (single isomer, unassigned) [Example I-270, rac-(1S*,2S*)-2-(4-chloropyridin-2-yl)-N-(4-(((6-cyclopropylimidazo[1,2-a]pyridin-2-yl)methyl)amino)pyridin-2-yl)cyclopropane-1-carboxamide], the concentration giving a half-maximal response (EC50) in assay [1] was less than 1 nM. Also, the IC90 on plasma kallikrein lay in the range of 1500 to 10000 nM.

Take `Cc1ccnc([C@H]2C[C@@H]2C(=O)Nc2ncc(C(F)(F)F)c(NCc3cn4cc(C5CC5)cc(N5CC(=O)N(C)C5=O)c4n3)n2)n1` (racemic) [Example 518, rac-(1S*,2S*)-N-(4-(((6-cyclopropyl-8-(3-methyl-2,4-dioxoimidazolidin-1-yl)imidazo[1,2-a]pyridin-2-yl)methyl)amino)-5-(trifluoromethyl)pyrimidin-2-yl)-2-(4-methylpyrimidin-2-yl)cyclopropane-1-carboxamide]: in assay [1], the EC50 is less than 1 nM. Further, the 90% effect concentration (IC90) on plasma kallikrein is less than 400 nM.

With `O=C(Nc1cc(NCc2cn3cc(C4CC4)cc(N4CC(F)C4)c3n2)ccn1)[C@H]1C[C@@H]1c1cccc(Cl)c1` [Example 125, (1S,2S)-2-(3-chlorophenyl)-N-(4-(((6-cyclopropyl-8-(3-fluoroazetidin-1-yl)imidazo[1,2-a]pyridin-2-yl)methyl)amino)pyridin-2-yl)cyclopropane-1-carboxamide], in assay [1], the 50% effective concentration (EC50) fell in the range of 1 to 10 nM. Also, the IC90 at plasma kallikrein fell in the range of 10000 to 48000 nM.

Consider `O=C(Nc1cc(NCc2cn3cc(C4CC4)cc(N4CC(=O)N(CCO)C4=O)c3n2)ncn1)[C@H]1C[C@@H]1c1cccc(Cl)c1` [Example 463, (1S,2S)-2-(3-chlorophenyl)-N-(6-(((6-cyclopropyl-8-(3-(2-hydroxyethyl)-2,4-dioxoimidazolidin-1-yl)imidazo[1,2-a]pyridin-2-yl)methyl)amino)pyrimidin-4-yl)cyclopropane-1-carboxamide], for which, in assay [1], the 50% effective concentration (EC50) was less than 1 nM. Besides, the IC90 at plasma kallikrein fell in the range of 400 to 1500 nM.

`CN1CCN(c2cc(C3CC3)cn3cc(CNc4cc(NC(=O)[C@H]5C[C@@H]5c5cc(Cl)ccn5)ncn4)nc23)C(=O)C1` (racemic) [Example I-195, rac-(1S*,2S*)-2-(4-chloropyridin-2-yl)-N-(6-(((6-cyclopropyl-8-(4-methyl-2-oxopiperazin-1-yl)imidazo[1,2-a]pyridin-2-yl)methyl)amino)pyrimidin-4-yl)cyclopropane-1-carboxamide]: the EC50 in assay [1] is less than 1 nM. For the same compound, at plasma kallikrein, the IC90 fell in the range of 400 to 1500 nM.

On to `CN1CCN(c2cc(C3CC3)cn3cc(CNc4cc(NC(=O)[C@H]5C[C@@H]5c5cccc(Cl)c5)ncn4)nc23)CC1CO` (stereo partly drawn) [Example I-7, (1S,2S)-2-(3-chlorophenyl)-N-(6-(((6-cyclopropyl-8-(3-(hydroxymethyl)-4-methylpiperazin-1-yl)imidazo[1,2-a]pyridin-2-yl)methyl)amino)pyrimidin-4-yl)cyclopropane-1-carboxamide], for which the concentration for a half-maximal effect (EC50) in assay [1] lay within 1 to 10 nM. Besides, the concentration for an effect of 90% (IC90) at plasma kallikrein lay within 400 to 1500 nM.

Turning to `Cc1cc(NCc2cn3cc(C4CC4)cc(N4CC(=O)N(C)C4=O)c3n2)nc(NC(=O)[C@H]2C[C@@H]2c2nccc(C)n2)n1` (racemic) [Example 519, rac-(1S*,2S*)-N-(4-(((6-cyclopropyl-8-(3-methyl-2,4-dioxoimidazolidin-1-yl)imidazo[1,2-a]pyridin-2-yl)methyl)amino)-6-methylpyrimidin-2-yl)-2-(4-methylpyrimidin-2-yl)cyclopropane-1-carboxamide], the EC50 in assay [1] was less than 1 nM. In addition, the IC90 at plasma kallikrein is less than 400 nM.

For the compound `Cc1ccnc([C@H]2C[C@@H]2C(=O)Nc2ncc(CO)c(NCc3cn4cc(C5CC5)cc(N5CC(=O)N(C)C5=O)c4n3)n2)n1` (racemic) [Example 627, rac-(1S*,2S*)—N-(4-(((6-cyclopropyl-8-(3-methyl-2,4-dioxoimidazolidin-1-yl)imidazo[1,2-a]pyridin-2-yl)methyl)amino)-5-(hydroxymethyl)pyrimidin-2-yl)-2-(4-methylpyrimidin-2-yl)cyclopropane-1-carboxamide], the 50% effective concentration (EC50) in assay [1] was less than 1 nM. For the same compound, the IC90 at plasma kallikrein is less than 400 nM.

For `Cc1ccnc([C@H]2C[C@@H]2C(=O)Nc2cc(N(C)C(C)c3cn4cc(C5CC5)cc(N5CC(=O)N(C)C5=O)c4n3)ncn2)n1` (stereo partly drawn) [Example 369, (1S,2S)-N-(6-((1-(6-cyclopropyl-8-(3-methyl-2,4-dioxoimidazolidin-1-yl)imidazo[1,2-a]pyridin-2-yl)ethyl)(methyl)amino)pyrimidin-4-yl)-2-(4-methylpyrimidin-2-yl)cyclopropane-1-carboxamide], in assay [1], the EC50 was 1 to 10 nM. In addition, on plasma kallikrein, the concentration for an effect of 90% (IC90) lay in the range of 1500 to 10000 nM.

For `Cc1ccnc([C@H]2C[C@@H]2C(=O)Nc2cc(NCc3nc4c(N5CC(=O)N(C)C5=O)cc(C5CC5)cn4c3F)ncn2)n1` [Example 379, (1S,2S)-N-(6-(((6-cyclopropyl-3-fluoro-8-(3-methyl-2,4-dioxoimidazolidin-1-yl)imidazo[1,2-a]pyridin-2-yl)methyl)amino)pyrimidin-4-yl)-2-(4-methylpyrimidin-2-yl)cyclopropane-1-carboxamide], the EC50 in assay [1] was less than 1 nM. The IC90 at plasma kallikrein lay within 400 to 1500 nM.

With `Cc1ccnc([C@H]2C[C@@H]2C(=O)Nc2cc(NC(C)c3cn4cc(C5CC5)cc(S(C)(=O)=O)c4n3)nc(C)n2)n1` (stereo partly drawn) [Example 363, (1S,2S)-N-(6-((1-(6-cyclopropyl-8-(methylsulfonyl)imidazo[1,2-a]pyridin-2-yl)ethyl)amino)-2-methylpyrimidin-4-yl)-2-(4-methylpyrimidin-2-yl)cyclopropane-1-carboxamide], the concentration for a half-maximal effect (EC50) in assay [1] is less than 1 nM. The IC90 on plasma kallikrein was in the range of 1500 to 10000 nM.
